Assays:
Conditions in all cases: human; call rule not given here
Hepatotoxicity [1] = test: FDA HLAED, liver enzyme composite activity
Hepatotoxicity [2] = test: FDA HLAED, alkaline phosphatase increase
Hepatotoxicity [3] = test: FDA HLAED, serum glutamic oxaloacetic transaminase (SGOT) increase
Hepatotoxicity [4] = test: FDA HLAED, serum glutamic pyruvic transaminase (SGPT) increase
Hepatotoxicity [5] = test: FDA HLAED, lactate dehydrogenase (LDH) increase
Hepatotoxicity [6] = test: FDA HLAED, gamma-glutamyl transferase (GGT) increase
Throughout, for GGT Increase - Index Value: reference of the scale not given here.
Throughout, for LDH Increase - Index Value: reference of the scale not given here.

| SMILES | Composite Activity - Active (Hepatotoxicity [1]) | Composite Activity - Marginal (Hepatotoxicity [1]) | Composite Activity - Score (Hepatotoxicity [1]) | Alkaline Phosphatase Increase - Activity Score (Hepatotoxicity [2]) | Alkaline Phosphatase Increase - Index Value (Hepatotoxicity [2]) | Alkaline Phosphatase Increase - Number of Reports (Hepatotoxicity [2]) | SGOT Increase - Activity Score (Hepatotoxicity [3]) | SGOT Increase - Index Value (Hepatotoxicity [3]) | SGOT Increase - Number of Reports (Hepatotoxicity [3]) | SGPT Increase - Activity Score (Hepatotoxicity [4]) | SGPT Increase - Index Value (Hepatotoxicity [4]) | SGPT Increase - Number of Reports (Hepatotoxicity [4]) | LDH Increase - Activity Score (Hepatotoxicity [5]) | LDH Increase - Index Value (Hepatotoxicity [5]) | LDH Increase - Number of Reports (Hepatotoxicity [5]) | GGT Increase - Activity Score (Hepatotoxicity [6]) | GGT Increase - Index Value (Hepatotoxicity [6]) | GGT Increase - Number of Reports (Hepatotoxicity [6]) | Composite Activity - Active (Hepatotoxicity [1]; Liver) | Composite Activity - Marginal (Hepatotoxicity [1]; Liver) | further results |
| --- | --- | --- | --- | --- | --- | --- | --- | --- | --- | --- | --- | --- | --- | --- | --- | --- | --- | --- | --- | --- | --- |
| CCN(CC)CCNC(=O)c1ccc(N)cc1 [PROCAINAMIDE] | 0 | 0 | Inactive | Inactive | 0 | < 4 | Inactive | 0 | < 4 | Inactive | 0 | < 4 | Inactive | 0 | < 4 | Inactive | 0 | < 4 | – | – | – |
| CCCNCC(O)COc1ccccc1C(=O)CCc1ccccc1 (stereo not given) [PROPAFENONE] | – | – | – | Active | 7.6 | >= 4 | Active | 5.7 | >= 4 | Active | 4.7 | >= 4 | Inactive | 1.9 | < 4 | Inactive | 2.9 | < 4 | 3 | 0 | Composite Activity - Score (Hepatotoxicity [1]; Liver): Active |
| CC(C)c1cccc(C(C)C)c1O [PROPOFOL] | – | – | – | Inactive | 0.4 | >= 4 | Inactive | 0.7 | >= 4 | Inactive | 0.5 | >= 4 | Inactive | 0.5 | >= 4 | Inactive | 0.1 | < 4 | 0 | 0 | Composite Activity - Score (Hepatotoxicity [1]; Liver): Inactive |
| Fc1ccccc1C1=NCC(=S)N(CC(F)(F)F)c2ccc(Cl)cc21 [QUAZEPAM] | 0 | 0 | Inactive | Inactive | 0 | < 4 | Inactive | 0 | < 4 | Inactive | 0 | < 4 | Inactive | 0 | < 4 | Inactive | 0 | < 4 | – | – | – |
| CNC(=C[N+](=O)[O-])NCCSCc1ccc(CN(C)C)o1 [RANITIDINE] | 0 | 0 | Inactive | Inactive | 1.1 | >= 4 | Inactive | 1.2 | >= 4 | Inactive | 1 | >= 4 | Inactive | 0.3 | >= 4 | Inactive | 0 | < 4 | – | – | – |

— ChEMBL document CHEMBL1697781, “Assessment of the health effects of chemicals in humans: II. Construction of an adverse effects database for QSAR modeling” (Curr Drug Discov Technol, 2004)
